Assay results from patent US8304434B2, “Substituted aryl sulfone derivatives as calcium channel blockers” (Merck Sharp & Dohme Corp., priority 2007, dated 2012).

Molecular target: T1, Human Cav2.2 channels (Homo sapiens, UniProt Q00975)
T1 construct: expressed in transfected cells; also expresses Kir2.3)
Assay: Fluorescent assay for Cav2.2 channels using potassium depolarization to initiate channel opening (Assay Example 1)
Assay type: cell-based
Conditions: Assay Example 1, HEK293 cells expressing human Cav2.2; pre-incubation potassium concentration not stated
Source text: Human Cav2.2 channels were stably expressed in HEK293 cells along with alpha2-delta and beta subunits of voltage-gated calcium channels. An inwardly rectifying potassium channel (Kir2.3) was also expressed in these cells to allow more precise control of the cell membrane potential by extracellular potassium concentration. At low bath potassium concentration, the membrane potential is relatively negative, and is depolarized as the bath potassium concentration is raised. In this way, the bath potassium concentration can be used to regulate the voltage-dependent conformations of the channels. Compounds are incubated with cells in the presence of low (4 mM) potassium or elevated (12, 25 or 30 mM) potassium to determine the affinity for compound block of resting (closed) channels at 4 mM potassium or affinity for block of open and inactivated channels at 12, 25 or 30 mM potassium. After the incubation period, Cav2.2 channel opening is triggered by addition of higher concentration of potassium (70 mM final concentration) to further depolarize the cell. The degree of state-dependent block can be estimated from the inhibitory potency of compounds after incubation in different potassium concentrations.
Calcium influx through Cav2.2 channels is determined using a calcium-sensitive fluorescent dye in combination with a fluorescent plate reader. Fluorescent changes were measured with either a VIPR (Aurora Instruments) or FLIPR (Molecular Devices) plate reader.
• 1. Seed cells in Poly-D-Lysine Coated 96- or 384-well plate and keep in a 37° C.-10% CO2 incubator overnight • 2. Remove media^1, wash cells with 0.2 ml (96-well plate) or 0.05 ml (384-well plate) Dulbecco's Phosphate Buffered Saline (D-PBS) with calcium & magnesium (Invitrogen; 14040) • 3. Add 0.1 ml (96-well plate) or 0.05 ml (384-well plate) of 4 μM fluo-4 (Molecular Probes; F-14202) and 0.02% Pluronic acid (Molecular Probes; P-3000) prepared in D-PBS with calcium & magnesium (Invitrogen; 14040) supplemented with 10 mM Glucose & 10 mM Hepes/NaOH; pH 7.4 • 4. Incubate in the dark at 25° C. for 60-70 min • 5. Remove dye^2, wash cells with 0.1 ml (96-well plate) or 0.06 ml (384-well plate) of 4, 12, 25, or 30 mM Potassium Pre-polarization Buffer. (PPB) • 6. Add 0.1 ml (96-well plate) or 0.03 ml (384-well plate) of 4, 12, 25, 30 mM PPB, with or without test compound • 7. Incubate in the dark at 25° C. for 30 min • 8. Read cell plate on VIPR instrument, Excitation=480 nm, Emission=535 nm • 9. With VIPR continuously reading, add 0.1 ml (96-well plate) or 0.03 ml (384-well plate) of Depolarization Buffer, which is 2× the final assay concentration, to the cell plate.

T1 sequence (Q00975 whole entry): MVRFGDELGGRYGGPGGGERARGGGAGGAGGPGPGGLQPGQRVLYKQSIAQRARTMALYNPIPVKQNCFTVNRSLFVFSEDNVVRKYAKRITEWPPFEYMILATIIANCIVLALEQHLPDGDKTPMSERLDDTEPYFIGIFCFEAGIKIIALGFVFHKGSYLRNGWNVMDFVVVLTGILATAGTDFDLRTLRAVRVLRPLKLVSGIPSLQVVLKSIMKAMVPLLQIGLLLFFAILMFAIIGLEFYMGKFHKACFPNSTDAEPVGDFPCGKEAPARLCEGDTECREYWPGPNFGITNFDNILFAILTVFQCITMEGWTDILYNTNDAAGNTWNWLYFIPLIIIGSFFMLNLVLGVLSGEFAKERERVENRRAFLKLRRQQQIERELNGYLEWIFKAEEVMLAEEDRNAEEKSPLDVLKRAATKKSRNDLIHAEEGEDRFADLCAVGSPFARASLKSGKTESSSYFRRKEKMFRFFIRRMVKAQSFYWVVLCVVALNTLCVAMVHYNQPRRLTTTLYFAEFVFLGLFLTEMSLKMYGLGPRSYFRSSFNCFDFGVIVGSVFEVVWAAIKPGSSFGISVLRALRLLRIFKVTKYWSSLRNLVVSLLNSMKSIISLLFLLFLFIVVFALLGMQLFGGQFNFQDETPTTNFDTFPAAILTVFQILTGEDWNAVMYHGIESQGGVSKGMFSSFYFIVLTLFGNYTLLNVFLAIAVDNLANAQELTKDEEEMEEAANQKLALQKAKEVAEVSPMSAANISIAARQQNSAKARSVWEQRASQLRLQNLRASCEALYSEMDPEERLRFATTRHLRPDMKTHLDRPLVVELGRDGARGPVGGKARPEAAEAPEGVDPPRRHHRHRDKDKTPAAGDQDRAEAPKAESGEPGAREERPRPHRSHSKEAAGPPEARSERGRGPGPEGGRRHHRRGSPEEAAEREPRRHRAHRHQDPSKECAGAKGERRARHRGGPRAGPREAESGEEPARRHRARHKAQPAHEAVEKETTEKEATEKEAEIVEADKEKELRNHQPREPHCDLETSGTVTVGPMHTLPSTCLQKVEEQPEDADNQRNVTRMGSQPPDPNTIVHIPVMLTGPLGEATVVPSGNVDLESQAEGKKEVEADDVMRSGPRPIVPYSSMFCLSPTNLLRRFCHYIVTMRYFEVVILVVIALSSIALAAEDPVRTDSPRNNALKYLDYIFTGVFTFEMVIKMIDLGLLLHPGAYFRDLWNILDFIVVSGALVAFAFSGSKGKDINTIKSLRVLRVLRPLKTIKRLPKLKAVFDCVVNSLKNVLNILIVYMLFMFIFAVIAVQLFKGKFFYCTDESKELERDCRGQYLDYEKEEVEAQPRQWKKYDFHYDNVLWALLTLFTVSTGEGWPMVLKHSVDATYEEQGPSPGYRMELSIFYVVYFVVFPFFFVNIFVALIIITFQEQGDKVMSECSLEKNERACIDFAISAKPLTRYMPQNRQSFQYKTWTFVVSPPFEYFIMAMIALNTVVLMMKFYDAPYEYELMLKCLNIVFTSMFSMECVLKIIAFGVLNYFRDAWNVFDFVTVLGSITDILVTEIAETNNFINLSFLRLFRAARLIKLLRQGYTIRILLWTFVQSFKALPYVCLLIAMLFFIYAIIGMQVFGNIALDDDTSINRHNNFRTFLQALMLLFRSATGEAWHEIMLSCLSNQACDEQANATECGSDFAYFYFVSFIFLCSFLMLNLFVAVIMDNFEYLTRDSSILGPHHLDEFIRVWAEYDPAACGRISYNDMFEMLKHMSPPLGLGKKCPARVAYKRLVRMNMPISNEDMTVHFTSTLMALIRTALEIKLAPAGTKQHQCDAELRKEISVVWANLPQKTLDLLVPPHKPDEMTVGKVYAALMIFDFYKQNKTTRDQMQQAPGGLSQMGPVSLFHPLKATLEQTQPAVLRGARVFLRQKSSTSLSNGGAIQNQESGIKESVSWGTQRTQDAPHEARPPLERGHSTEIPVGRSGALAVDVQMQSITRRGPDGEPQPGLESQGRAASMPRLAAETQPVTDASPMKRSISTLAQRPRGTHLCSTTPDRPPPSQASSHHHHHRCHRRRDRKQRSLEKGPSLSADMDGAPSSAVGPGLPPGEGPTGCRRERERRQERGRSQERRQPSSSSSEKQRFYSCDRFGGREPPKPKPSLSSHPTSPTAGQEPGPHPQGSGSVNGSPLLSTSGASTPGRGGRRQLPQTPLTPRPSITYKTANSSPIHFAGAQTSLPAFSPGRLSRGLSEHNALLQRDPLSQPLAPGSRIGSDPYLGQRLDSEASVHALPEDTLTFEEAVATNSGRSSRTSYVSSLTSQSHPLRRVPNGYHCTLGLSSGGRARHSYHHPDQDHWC

Row | Compound | IC50
1 | CC(C)(C1CCN(C(=O)c2nc3ccc(F)cc3[nH]2)CC1)S(=O)(=O)c1cccc(C(F)(F)F)c1 | 790 nM
2 | CC(C)(C1CCN(C(=O)c2cccc(F)c2)CC1)S(=O)(=O)c1cccc(C(F)(F)F)c1 | 830 nM
3 | CC(C)(C1CCN(C(=O)C2(N)CCC2)CC1)S(=O)(=O)c1cccc(C(F)(F)F)c1 | 1170 nM
4 | CC(C)(C1CCN(C(=O)[C@H](O)Cc2ccccc2)CC1)S(=O)(=O)c1cccc(C(F)(F)F)c1 | 510 nM
5 | CC(C)(C1CCN(C(=O)c2cccc3nccnc23)CC1)S(=O)(=O)c1cccc(C(F)(F)F)c1 | 1400 nM
6 | CC(C)(C1CCN(C(=O)C[C@@H](NS(C)(=O)=O)c2ccccc2)CC1)S(=O)(=O)c1cccc(C(F)(F)F)c1 | 360 nM
7 | CC(C)(C1CCN(C(=O)c2ccc(C(F)(F)F)cc2S(C)(=O)=O)CC1)S(=O)(=O)c1cccc(C(F)(F)F)c1 | 150 nM
8 | CC(C)(C)c1ccc(C(=O)N2CCC(C(C)(C)S(=O)(=O)c3cccc(C(F)(F)F)c3)CC2)cc1 | 490 nM
9 | CC(C)(C1CCN(C(=O)[C@@H](N)Cc2ccccc2)CC1)S(=O)(=O)c1cccc(C(F)(F)F)c1 | 490 nM
10 | CC(C)(C1CCN(C(=O)c2c[nH]c(-c3ccccc3)n2)CC1)S(=O)(=O)c1cccc(C(F)(F)F)c1 | 1390 nM
